Measured values as given in US5519025A, “4-indolylpiperazinyl derivatives” (American Home Products Corporation, priority 1995, dated 1996).

Target: T1, 5-HT1A serotonin receptors (Rattus norvegicus, UniProt P19327)
T1 construct: rat hippocampal membrane homogenate; from tissue; host or cells: rat hippocampus, membrane homogenate
T1 sequence (P19327 1-422): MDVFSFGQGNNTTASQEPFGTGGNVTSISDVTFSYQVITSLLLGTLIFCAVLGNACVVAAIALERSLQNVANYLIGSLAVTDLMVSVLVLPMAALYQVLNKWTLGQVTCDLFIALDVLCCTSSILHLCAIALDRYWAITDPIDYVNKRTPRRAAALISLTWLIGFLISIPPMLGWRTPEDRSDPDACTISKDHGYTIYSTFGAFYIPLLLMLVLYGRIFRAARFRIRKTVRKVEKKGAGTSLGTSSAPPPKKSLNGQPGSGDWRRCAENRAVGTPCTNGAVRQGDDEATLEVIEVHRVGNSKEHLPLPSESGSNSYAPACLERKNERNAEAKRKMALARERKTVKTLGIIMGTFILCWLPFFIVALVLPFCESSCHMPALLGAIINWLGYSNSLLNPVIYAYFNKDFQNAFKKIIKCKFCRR
Assay: displacement of [3H] 8-OHDPAT from 5-HT1A serotonin receptors in rat hippocampal membrane homogenate
Format: binding
Details: [3H] 8-OHDPAT displacement
From the text: High affinity for the serotonin 5-HT1A receptor was established by testing the claimed compound's ability to displace [^3 H] 8-OHDPAT (dipropylaminotetralin) from the 5-HT1A serotonin receptors in rat hippocampal membrane homogenate following the procedure of B. S. Alexander and M. D. Wood, J. Pharm. Pharmacol. 1988, 40, 888-891. […] Based upon this receptor binding data, the compounds of this invention are characterized as anxiolytic and/or antidepressant agents useful in the treatment of depression and in alleviating anxiety. As such, the compounds may be administered neat or with a pharmaceutical carrier to a patient in need thereof. The pharmaceutical carrier may be solid or liquid.

| IC50 | Compound |
| --- | --- |
| 0.00433 µM | CC1(C(=O)N[C@@H](CN2CCN(c3cccc4[nH]ccc34)CC2)c2ccccc2)CCCCC1 [Example 1] |
| 0.0355 µM | CC1(C(=O)N[C@H](CN2CCN(c3cccc4[nH]ccc34)CC2)c2ccccc2)CCCCC1 [Example 2] |
